Measured values: patent US20080293712A1, “Benzo[C][2,7]Naphtyridine Derivatives, Methods of Making Thereof and Methods of Use Thereof” (WYETH, priority 2007, published 2008)

Molecular target: T1, PDK-1 (Homo sapiens, UniProt O15530)
T1 sequence (O15530 1-556): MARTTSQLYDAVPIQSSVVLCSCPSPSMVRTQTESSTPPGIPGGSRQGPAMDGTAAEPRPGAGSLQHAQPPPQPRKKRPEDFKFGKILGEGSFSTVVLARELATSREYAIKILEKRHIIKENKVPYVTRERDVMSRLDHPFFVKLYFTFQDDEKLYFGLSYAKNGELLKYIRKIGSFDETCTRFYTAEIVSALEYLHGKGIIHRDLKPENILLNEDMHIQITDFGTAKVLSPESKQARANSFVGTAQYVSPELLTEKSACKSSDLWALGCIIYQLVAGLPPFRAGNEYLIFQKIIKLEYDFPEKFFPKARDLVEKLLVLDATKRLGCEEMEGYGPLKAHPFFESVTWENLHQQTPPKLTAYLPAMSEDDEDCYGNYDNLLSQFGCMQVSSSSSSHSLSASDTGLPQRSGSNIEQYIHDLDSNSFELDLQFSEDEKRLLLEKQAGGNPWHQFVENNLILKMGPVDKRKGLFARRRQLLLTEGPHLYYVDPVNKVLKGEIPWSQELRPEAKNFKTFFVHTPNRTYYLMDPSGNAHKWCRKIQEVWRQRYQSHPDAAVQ
Test: PDK-1 kinase inhibition ELISA assay (phosphorylation of His6-tagged SGK1 S422D by PDK-1)
Type: biochemical
Conditions: not given

`COc1ccc(Nc2cncc(-c3cc4c(cnc5cc(OC)c(OC)cc54)c(N)n3)c2)cc1` [Ib-177, 8,9-dimethoxy-2-{5-[(4-methoxyphenyl)amino]pyridin-3-yl}benzo[c][2,7]naphthyridin-4-amine] and `COc1cccc(Nc2cncc(-c3cc4c(cnc5cc(OC)c(OC)cc54)c(N)n3)c2)c1` [Ib-176, 8,9-dimethoxy-2-{5-[(3-methoxyphenyl)amino]pyridin-3-yl}benzo[c][2,7]naphthyridin-4-amine] are within 1.5-fold of each other in IC50: 383 nM for the first, 434 nM for the second.

Same assay, conditions: PDK-1 ELISA, Table 11; read-out: Average IC50

Going from `COc1cc2ncc3c(N)nc(-c4cncc(OC[C@@H](N)Cn5ccc(=N)cc5)c4)cc3c2cc1OC` [Ib-82, 2-(5-{[(2S)-2-amino-3-(4-iminopyridin-1(4H)-yl)propyl]oxy}pyridin-3-yl)-8,9-dimethoxybenzo[c][2,7]naphthyridin-4-amine] to `COc1cc2ncc3c(N)nc(-c4cncc(OC[C@@H](N)Cn5ccnc5)c4)cc3c2cc1OC` [Ib-9, 2-(5-{[(2S)-2-amino-3-(1H-imidazol-1-yl)propyl]oxy}pyridin-3-yl)-8,9-dimethoxybenzo[c]-2,7-naphthyridin-4-amine], the IC50 falls from 92 nM to 20 nM (4.6-fold).

Compared with `COc1ccc(Oc2cncc(-c3cc4c(cnc5cc(OC)c(OC)cc54)c(N)n3)c2)cc1` [Ib-210, 8,9-dimethoxy-2-[5-(4-methoxyphenoxy)pyridin-3-yl]benzo[c][2,7]naphthyridin-4-amine], `COc1cc2ncc3c(N)nc(-c4cncc(Nc5ccc(C#N)cc5)c4)cc3c2cc1OC` [Ib-180, 4-{[5-(4-amino-8,9-dimethoxybenzo[c][2,7]naphthyridin-2-yl)pyridin-3-yl]amino}benzonitrile] is lower in IC50: greater than 700 nM for the first, 600 nM for the second. The second is the more potent here.

First: COCCOc1cc2ncc3c(N)nc(N4CCCC4)cc3c2cc1OC [Ia-62, 9-Methoxy-8-(2-methoxyethoxy)-2-pyrrolidin-1-ylbenzo[c]-2,7-naphthyridin-4-amine]
Second: COc1cc2ncc3c(N)nc(N4CC[C@@H](O)C4)cc3c2cc1OC [Ib-65, (3R)-1-(4-amino-8,9-dimethoxybenzo[c]-2,7-naphthyridin-2-yl)pyrrolidin-3-ol]
The IC50 of the first is 2.5-fold lower: 1860 nM for the first, 4610 nM for the second.

`COc1cc2ncc3c(N)nc(-c4cncc(OC[C@@H](N)COc5ncc(Cl)cc5Cl)c4)cc3c2cc1OC` [Ib-153, 2-[5-({(2R)-2-amino-3-[(3,5-dichloropyridin-2-yl)oxy]propyl}oxy)pyridin-3-yl]-8,9-dimethoxybenzo[c][2,7]naphthyridin-4-amine] and `COc1cc2ncc3c(N)nc(-c4cncc(OC[C@@H](N)CNc5ccc(F)c(Cl)c5)c4)cc3c2cc1OC` [Ib-84, (2S)-3-{[5-(4-amino-8,9-dimethoxybenzo[c][2,7]naphthyridin-2-yl)pyridin-3-yl]oxy}-N1-(3-chloro-4-fluorophenyl)propane-1,2-diamine] are within 1.5-fold of each other in IC50: 4 nM for the first, 5 nM for the second.

Compared with `COc1cc2ncc3c(N)nc(-c4cncc(OC[C@@H](N)CN(C)c5cccc(Cl)c5)c4)cc3c2cc1OC` [Ib-112, (2S)-3-{[5-(4-amino-8,9-dimethoxybenzo[c][2,7]naphthyridin-2-yl)pyridin-3-yl]oxy}-N1-(3-chlorophenyl)-N1-methylpropane-1,2-diamine], `COc1cc2ncc3c(N)nc(-c4cncc(OC[C@@H](N)CN(C)Cc5cccc(F)c5)c4)cc3c2cc1OC` [Ib-8, (2S)-3-{[5-(4-amino-8,9-dimethoxybenzo[c]-2,7-naphthyridin-2-yl)pyridin-3-yl]oxy}-N1-(3-fluorobenzyl)-N1-methylpropane-1,2-diamine] is 8-fold lower in IC50: 40 nM for the first, 5 nM for the second.

First: COc1cc2ncc3c(N)nc(-c4cncc(OC[C@@H](N)CN(C)Cc5cccnc5)c4)cc3c2cc1OC [Ib-6, (2S)-3-{[5-(4-amino-8,9-dimethoxybenzo[c]-2,7-naphthyridin-2-yl)pyridin-3-yl]oxy}-N1-methyl-N1-(pyridin-3-ylmethyl)propane-1,2-diamine]
Second: CCN(Cc1ccncc1)C[C@H](N)COc1cncc(-c2cc3c(cnc4cc(OC)c(OC)cc43)c(N)n2)c1 [Ib-21, (2S)-3-{[5-(4-amino-8,9-dimethoxybenzo[c]-2,7-naphthyridin-2-yl)pyridin-3-yl]oxy}-N1-ethyl-N1-(pyridin-4-ylmethyl)propane-1,2-diamine]
The IC50 of the first is 1.8-fold lower: 4 nM for the first, 7 nM for the second.

First: COc1cc2ncc3c(N)nc(-c4cncc(OC[C@@H](N)CNC(C)(C)Cc5ccc(F)cc5)c4)cc3c2cc1OC [Ib-87, (2S)-3-{[5-(4-amino-8,9-dimethoxybenzo[c][2,7]naphthyridin-2-yl)pyridin-3-yl]oxy}-N1-[2-(4-fluorophenyl)-1,1-dimethylethyl]propane-1,2-diamine]
Second: COc1cc2ncc3c(N)nc(-c4cncc(OC[C@@H](N)CNC(C)(C)C)c4)cc3c2cc1OC [Ib-86, (2S)-3-{[5-(4-amino-8,9-dimethoxybenzo[c][2,7]naphthyridin-2-yl)pyridin-3-yl]oxy}-N1-tert-butylpropane-1,2-diamine]
The IC50 of the first is 6.4-fold lower: 12 nM for the first, 77 nM for the second.

Compared with `COc1cc2ncc3c(N)nc(-c4cncc(Nc5ccccc5)c4)cc3c2cc1OC` [Ib-203, 2-(5-anilinopyridin-3-yl)-8,9-dimethoxybenzo[c][2,7]naphthyridin-4-amine], `COc1cc2ncc3c(N)nc(-c4cncc(Nc5ccccc5C#N)c4)cc3c2cc1OC` [Ib-178, 2-{[5-(4-amino-8,9-dimethoxybenzo[c][2,7]naphthyridin-2-yl)pyridin-3-yl]amino}benzonitrile] is 2.7-fold lower in IC50: 283 nM for the first, 105 nM for the second.

Compared with `CCNCCOc1cncc(-c2cc3c(cnc4cc(OC)c(OC)cc43)c(N)n2)c1` [Ib-73, 2-(5-(2-(ethylamino)ethoxy)pyridin-3-yl)-8,9-dimethoxybenzo[c][2,7]naphthyridin-4-amine], `COc1cc2ncc3c(N)nc(-c4cncc(OC[C@@H](N)CO)c4)cc3c2cc1OC` [Ib-10, (2S)-2-amino-3-{[5-(4-amino-8,9-dimethoxybenzo[c]-2,7-naphthyridin-2-yl)pyridin-3-yl]oxy}propan-1-ol] is 7.8-fold lower in IC50: 46.5 nM for the first, 6 nM for the second. The second is the more potent here.

Compared with `COCCOc1cc2ncc3c(NCc4cccnc4)nc(NCc4cccnc4)cc3c2cc1OC` [Compound I-3, 9-methoxy-8-(2-methoxyethoxy)-N,N′-bis(pyridin-3-ylmethyl)benzo[c]-2,7-naphthyridine-2,4-diamine], `COc1cc2ncc3c(N)nc(-c4cncc(OC[C@@H](N)CSc5ccncc5)c4)cc3c2cc1OC` [Ib-164, 2-(5-{[(2R)-2-amino-3-(pyridin-4-ylthio)propyl]oxy}pyridin-3-yl)-8,9-dimethoxybenzo[c][2,7]naphthyridin-4-amine] is 880-fold lower in IC50: 8830 nM for the first, 10 nM for the second. The second is the more potent here.

`COc1cc2ncc3c(N)nc(-c4cncc(Nc5ccccc5C(N)=O)c4)cc3c2cc1OC` [Ib-186, 2-{[5-(4-amino-8,9-dimethoxybenzo[c][2,7]naphthyridin-2-yl)pyridin-3-yl]amino}benzamide] and `CNC(=O)c1ccccc1Nc1cncc(-c2cc3c(cnc4cc(OC)c(OC)cc43)c(N)n2)c1` [Ib-187, 2-{[5-(4-amino-8,9-dimethoxybenzo[c][2,7]naphthyridin-2-yl)pyridin-3-yl]amino}-N-methylbenzamide] are within 1.5-fold of each other in IC50: 164 nM for the first, 110 nM for the second.

Compared with `COc1cc2ncc3c(N)nc(-c4cc(F)cc(C#N)c4)cc3c2cc1OC` [Ib-241, 3-(4-amino-8,9-dimethoxybenzo[c][2,7]naphthyridin-2-yl)-5-fluorobenzonitrile], `COc1cc2ncc3c(N)nc(-c4cncc(Br)c4)cc3c2cc1OC` [Ib-15, 2-(5-bromopyridin-3-yl)-8,9-dimethoxybenzo[c]-2,7-naphthyridin-4-amine] is 15-fold lower in IC50: 1000 nM for the first, 66 nM for the second. The second is the more potent here.

`COc1cc2ncc3c(N)nc(-c4cncc(CCCN)c4)cc3c2cc1OC` [Ib-256, 2-[5-(3-aminopropyl)pyridin-3-yl]-8,9-dimethoxybenzo[c][2,7]naphthyridin-4-amine] and `COc1cc2ncc3c(N)nc(-c4cncc(OC[C@@H](N)CNc5ccc(C)c(F)c5)c4)cc3c2cc1OC` [Ib-81, (2S)-3-{[5-(4-amino-8,9-dimethoxybenzo[c][2,7]naphthyridin-2-yl)pyridin-3-yl]oxy}-N1-(3-fluoro-4-methylphenyl)propane-1,2-diamine] are within 1.5-fold of each other in IC50: 27 nM for the first, 22 nM for the second.

First: COc1cc2ncc3c(N)nc(-c4cncc(OC[C@@H](N)CN5CCC[C@H]5c5nccs5)c4)cc3c2cc1OC [Ib-98, 2-[5-({(2S)-2-amino-3-[(2S)-2-(1,3-thiazol-2-yl)pyrrolidin-1-yl]propyl}oxy)pyridin-3-yl]-8,9-dimethoxybenzo[c][2,7]naphthyridin-4-amine]
Second: COc1cc2ncc3c(N)nc(-c4cncc(OC[C@@H](N)Cc5c[nH]c6ccccc56)c4)cc3c2cc1OC [Ib-13, 2-(5-{[(2S)-2-amino-3-(1H-indol-3-yl)propyl]oxy}pyridin-3-yl)-8,9-dimethoxybenzo[c]-2,7-naphthyridin-4-amine]
The IC50 of the first is 1.7-fold higher: 10 nM for the first, 6 nM for the second.

Compared with `COc1cc2c(cc1N1CCOCC1)ncc1c(N)nc(-c3cncc(OC[C@@H](N)Cc4ccccc4)c3)cc12` [Ia-39, 2-(5-{[(2S)-2-Amino-3-phenylpropyl]oxy}pyridin-3-yl)-9-methoxy-8-morpholin-4-ylbenzo[c]-2,7-naphthyridin-4-amine], `CCCCN(C[C@H](N)COc1cncc(-c2cc3c(cnc4cc(OC)c(OC)cc43)c(N)n2)c1)S(=O)(=O)c1ccccc1` [Ib-77, N-[(2S)-2-amino-3-{[5-(4-amino-8,9-dimethoxybenzo[c][2,7]naphthyridin-2-yl)pyridin-3-yl]oxy}propyl]-N-butylbenzenesulfonamide] is 2.8-fold lower in IC50: 59 nM for the first, 21 nM for the second. The second is the more potent here.

Work on `COc1cc2ncc3c(N)nc(-c4cncc(Nc5ccccc5Nc5ccccc5)c4)cc3c2cc1OC` [Ib-183, N-[5-(4-amino-8,9-dimethoxybenzo[c][2,7]naphthyridin-2-yl)pyridin-3-yl]-N′-phenylbenzene-1,2-diamine] yielded an IC50 of 505 nM.
